Data: patent publication US9745328B2, “Flap modulators” (JANSSEN PHARMACEUTICA NV, priority 2013, dated 2017)
Counter-ions that a name gives are not always drawn.

Molecular target: human FLAP (Homo sapiens (Human), UniProt P20292)
Assay: FLAP binding assay (HTRF format)
Settings: Table 5, human FLAP wild type
Method: The ability of the compounds of the present invention to treat a FLAP-mediated disease and/or disorder, or associated symptoms or complications thereof, was determined using the following procedures. Binding assay data represent the average value obtained from two different assay plates, with samples run in duplicate on each plate. Human whole blood assay data represent a single replicate on an assay plate using whole blood from at least one healthy donor.
Data are expressed as a HTRF ratio.

human FLAP, sequence (P20292 whole entry): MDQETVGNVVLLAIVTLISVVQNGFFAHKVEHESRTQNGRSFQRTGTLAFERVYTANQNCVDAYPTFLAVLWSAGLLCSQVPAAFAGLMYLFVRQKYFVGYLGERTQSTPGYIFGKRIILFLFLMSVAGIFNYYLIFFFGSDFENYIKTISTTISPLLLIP

Nc1cnc(-c2ccc(-c3cccnc3S(=O)(=O)C3CCNC3)cc2F)cn1 (racemic) [Example 803, 5-(2-Fluoro-4-(2-(pyrrolidin-3-ylsulfonyl)pyridin-3-yl)phenyl)pyrazin-2-amine hydrochloride] showed a Ki of 106 nM.

Same assay, conditions: Table 6 (additional runs), human FLAP wild type

CC(NS(=O)(=O)c1ccccc1-c1ccc(-c2cnc(N)cn2)c(F)c1)C(F)(F)F (racemic) [Example 8, (racemic)-4′-(5-Aminopyrazin-2-yl)-3′-fluoro-N-(2,2,2-trifluoro-1-methylethyl)biphenyl-2-sulfonamide racemic] and CC(C)(NS(=O)(=O)c1ccccc1-c1ccc(-c2cnc(N)cn2)c(F)c1)C(F)(F)F [Example 13, 4′-(5-4minopyrazin-2-yl)-3′-fluoro-N-(2,2,2-trifluoro-1,1-dimethylethyl)biphenyl-2-sulfonamide] are within 1.5-fold of each other in Ki: 1.3 nM for the first, 1.2 nM for the second.

First: Nc1cnc(-c2ccc(-c3ccccc3S(=O)(=O)NC3CC4CCC3C4)cc2F)cn1 (racemic) [Example 10, (racemic)-(endo)-4′-(5-Aminopyrazin-2-yl)-N-bicyclo[2.2.1]hept-2-yl-3′-fluorobiphenyl-2-sulfonamide racemic]
Second: Nc1cnc(-c2ccc(-c3ccccc3S(=O)(=O)N[C@H]3CCCC[C@@H]3O)cc2F)cn1 (racemic) [Example 120, racemic (trans)-4′-(5-Aminopyrazin-2-yl)-3′-fluoro-N-(2-hydroxycyclohexyl)biphenyl-2-sulfonamide]
The Ki of the first is 2.5-fold higher: 2.7 nM for the first, 1.1 nM for the second.

Going from Nc1cnc(-c2ccc(-c3ccccc3S(=O)(=O)N3CCN4CCCC4C3)cc2F)cn1 (racemic) [Example 61, racemic 5-[3-Fluoro-2′-(hexahydropyrrolo[1,2-a]pyrazin-2(1H)-ylsulfonyl)biphenyl-4-yl]pyrazin-2-amine] to Nc1cnc(-c2ccc(-c3ccccc3S(=O)(=O)N3CCCC(CCO)C3)cc2F)cn1 (racemic) [Example 71, racemic 2-(1-{[4′-(5-Aminopyrazin-2-yl)-3′-fluorobiphenyl-2-yl]sulfonyl}piperidin-3-yl)ethanol], the Ki falls from 15.9 nM to 1.9 nM (8.4-fold).

First: CC(C)(C)OC(=O)NC1CCCN(S(=O)(=O)c2ccccc2-c2ccc(-c3cnc(N)cn3)c(F)c2)C1 (racemic) [Example 77, racemic tert-Butyl (1-{[4′-(5-aminopyrazin-2-yl)-3′-fluorobiphenyl-2-yl]sulfonyl}piperidin-3-yl)carbamate]
Second: CC(C)(C)NS(=O)(=O)c1ccccc1-c1ccc(-c2cnc(N)cn2)c(F)c1 [Example 4, 4′-(5-Aminopyrazin-2-yl)-N-(tert-butyl)-3′-fluoro-[1,1′-biphenyl]-2-sulfonamide]
The Ki of the first is 8-fold higher: 3.2 nM for the first, 0.4 nM for the second.

Nc1cnc(-c2ccc(-c3ccccc3S(=O)(=O)N[C@H]3CCCC[C@@H]3CO)cc2F)cn1 (racemic) [Example 121, racemic (trans)-4′-(5-Aminopyrazin-2-yl)-3′-fluoro-N-[2-(hydroxymethyl)cyclohexyl]biphenyl-2-sulfonamide] and Nc1cnc(-c2ccc(-c3ccccc3S(=O)(=O)N[C@@H]3CCCC[C@@H]3CO)cc2F)cn1 (racemic) [Example 122, racemic (cis)-4′-(5-Aminopyrazin-2-yl)-3′-fluoro-N-[2-(hydroxymethyl)cyclohexyl]biphenyl-2-sulfonamide] are within 1.5-fold of each other in Ki: 0.5 nM for the first, 0.7 nM for the second.

Nc1ncc(-c2ccc(-c3ccccc3S(=O)(=O)N[C@H]3CCCC[C@H]3O)cc2F)cn1 (racemic) [Example 259, racemic (cis) 4′-(2-Aminopyrimidin-5-yl)-3′-fluoro-N-[(cis)-2-hydroxycyclohexyl]biphenyl-2-sulfonamide] and Nc1ncc(-c2ccc(-c3ccccc3S(=O)(=O)N[C@H]3CCCC[C@@H]3O)cc2F)cn1 (racemic) [Example 260, racemic (trans) 4′-(2-Aminopyrimidin-5-yl)-3′-fluoro-N-[(trans)-2-hydroxycyclohexyl]biphenyl-2-sulfonamide] are within 1.5-fold of each other in Ki: 7.8 nM for the first, 8.9 nM for the second.

CC(NS(=O)(=O)c1ccccc1-c1ccc(-c2cnc3[nH]ccc3n2)c(F)c1)C(F)(F)F (racemic) [Example 376, 3′-Fluoro-4′-(5H-pyrrolo[2,3-b]pyrazin-2-yl)N-N-(2,2,2-trifluoro-1-methylethyl)biphenyl-2-sulfonamide] and CC(CO)NS(=O)(=O)c1ccccc1-c1ccc(-c2cnc3[nH]ccc3n2)c(F)c1 (stereo in doubt) [Example 378, 3′-Fluoro-N-[(1R)-2-hydroxy-1-methylethyl]-4′-(5H-pyrrolo[2,3-b]pyrazin-2-yl)biphenyl-2-sulfonamide] are within 1.5-fold of each other in Ki: 0.5 nM for the first, 0.6 nM for the second.

Compared with C[C@H](NS(=O)(=O)c1ccccc1-c1ccc(-c2cnc(N)cn2)c(F)c1)C(O)c1ccccc1 (stereo in doubt) [Example 83, 4′-(5-Aminopyrazin-2-yl)-3′-fluoro-N-[(1S,2R)-2-hydroxy-1-methyl-2-phenylethyl]biphenyl-2-sulfonamide], Nc1cnc(-c2ccc(-c3ccccc3S(=O)(=O)N[C@H](c3ccccc3)C(F)(F)F)cc2F)cn1 [Example 18] is 2.6-fold higher in Ki: 0.7 nM for the first, 1.8 nM for the second.

Compared with CN1CCN([C@H]2CN(S(=O)(=O)c3ccccc3-c3ccc(-c4cnc(N)cn4)c(F)c3)C[C@@H]2O)CC1 (stereo in doubt) [Example 188, (3S,4S)-1-{[4′-(5-Aminopyrazin-2-yl)-3′-fluorobiphenyl-2-yl]sulfonyl}-4-(4-methylpiperazin-1-yl)pyrrolidin-3-ol], CS(=O)(=O)c1ccccc1-c1ccc(-c2cnc(N)cn2)c(F)c1 [Example 1, 5-(3-Fluoro-2′-(methylsulfonyl)-[1,1′-biphenyl]-4-yl)pyrazin-2-amine] is 1.8-fold higher in Ki: 201 nM for the first, 352 nM for the second.

First: CC(CO)NS(=O)(=O)c1ccccc1-c1ccc(-c2cnc3[nH]ccc3n2)c(F)c1 (stereo in doubt) [Example 380, 3′-Fluoro-N-[(1S)-2-hydroxy-1-methylethyl]4′-(5H-pyrrolo[2,3-b]pyrazin-2-yl)biphenyl-2-sulfonamide]
Second: CCNS(=O)(=O)c1ccccc1-c1ccc(-c2cnc(N)cn2)c(F)c1 [Example 16, 4′-(5-Aminopyrazin-2-yl)-N-ethyl-3′-fluorobiphenyl-2-sulfonamide]
The Ki of the first is 4.5-fold lower: 1.1 nM for the first, 5 nM for the second. The first binds more tightly here.

Compared with CS(=O)(=O)Nc1ccccc1-c1ccc(-c2cnc(N)cn2)c(F)c1 [Example 2, N-[4′-(5-Aminopyrazin-2-yl)-3′-fluorobiphenyl-2-yl]methanesulfonamide], CNS(=O)(=O)c1ccccc1-c1ccc(-c2cnc(N)cn2)c(F)c1 [Example 15, 4′-(5-Aminopyrazin-2-yl)-3′-fluoro-N-methylbiphenyl-2-sulfonamide] is 16-fold lower in Ki: 178 nM for the first, 11.1 nM for the second. The second binds more tightly here.

Compared with Nc1cnc(-c2ccc(-c3ccccc3S(=O)(=O)NC3CCCCC3)cc2F)cn1 [Example 6, 4′-(5-Aminopyrazin-2-yl)-N-cyclohexyl-3′-fluorobiphenyl-2-sulfonamide], Nc1cnc(-c2ccc(-c3ccccc3S(=O)(=O)NC3CCCC3)cc2F)cn1 [Example 14, 4′-(5-Aminopyrazin-2-yl)-N-cyclopentyl-3′-fluorobiphenyl-2-sulfonamide] is 3.2-fold higher in Ki: 1.1 nM for the first, 3.5 nM for the second. The first binds more tightly here.

Compared with CC(C)CNS(=O)(=O)c1ccccc1-c1ccc(-c2cnc(N)cn2)c(F)c1 [Example 7, 4′-(5-Aminopyrazin-2-yl)-3′-fluoro-N-(2-methylpropyl)biphenyl-2-sulfonamide], CCC(C)(C)NS(=O)(=O)c1ccccc1-c1ccc(-c2cnc(N)cn2)c(F)c1 [Example 12, 4′-(5-Aminopyrazin-2-yl)-N-(1,1-dimethylpropyl)-3′-fluorobiphenyl-2-sulfonamide] is 2.4-fold higher in Ki: 0.8 nM for the first, 1.9 nM for the second. The first binds more tightly here.

Nc1cnc(-c2ccc(-c3ccccc3S(=O)(=O)NCC3CCC3)cc2F)cn1 [Example 9, 4′-(5-Aminopyrazin-2-yl)-N-(cyclobutylmethyl)-3′-fluorobiphenyl-2-sulfonamide] and CC1(NS(=O)(=O)c2ccccc2-c2ccc(-c3cnc(N)cn3)c(F)c2)CCC1 [Example 11, 4′-(5-Aminopyrazin-2-yl)-3′-fluoro-N-(1-methylcyclobutyl)biphenyl-2-sulfonamide] are within 1.5-fold of each other in Ki: 1.5 nM for the first, 1.6 nM for the second.

First: Nc1cnc(-c2ccc(-c3ccccc3S(=O)(=O)NCCc3ccccc3)cc2F)cn1 [Example 17, 4′-(5-Aminopyrazin-2-yl)-3′-fluoro-N-(2-phenylethyl)biphenyl-2-sulfonamide]
Second: Nc1cnc(-c2ccc(-c3ccccc3S(=O)(=O)Nc3ccccc3)cc2F)cn1 [Example 26, 4′-(5-Aminopyrazin-2-yl)-3′-fluoro-N-phenylbiphenyl-2-sulfonamide]
The Ki of the first is 1.9-fold higher: 1.7 nM for the first, 0.9 nM for the second.

Nc1cnc(-c2ccc(-c3ccccc3S(=O)(=O)N[C@@H](c3ccccc3)C(F)(F)F)cc2F)cn1 [Example 19] and Nc1cnc(-c2ccc(-c3ccccc3S(=O)(=O)NC3Cc4ccccc4C3)cc2F)cn1 [Example 21, 4′-(5-Aminopyrazin-2-yl)-N-(2,3-dihydro-1H-inden-2-yl)-3′-fluorobiphenyl-2-sulfonamide] are within 1.5-fold of each other in Ki: 2.2 nM for the first, 2.1 nM for the second.

Going from Nc1cnc(-c2ccc(-c3ccccc3S(=O)(=O)N[C@@H]3CCc4ccccc43)cc2F)cn1 [Example 23, (R)-4′-(5-Aminopyrazin-2-yl|)-N-[(1R)-2,3-dihydro-1H-inden-1-yl]-3′-fluorobiphenyl-2-sulfonamide] to CCN1CCCC[C@@H](NS(=O)(=O)c2ccccc2-c2ccc(-c3cnc(N)cn3)c(F)c2)C1=O [Example 27], the Ki rises from 1.2 nM to 26.3 nM (22-fold).

Same assay, conditions: human FLAP wild type, Table 6 (additional runs)

Compared with Nc1cnc(-c2ccc(-c3cccnc3S(=O)(=O)C3CCNC3)cc2F)cn1 (racemic) [Example 803, 5-(2-Fluoro-4-(2-(pyrrolidin-3-ylsulfonyl)pyridin-3-yl)phenyl)pyrazin-2-amine hydrochloride], CC(O)CNS(=O)(=O)c1ccccc1-c1ccc(-c2cnc(N)c(C#N)n2)c(F)c1 (stereo in doubt) [Example 415, 4′-(5-Amine-6-cyanopyrazin-2-yl)-3′-fluoro-N-[(R)-2-hydroxypropyl]biphenyl-2-sulfonamide] is 9.7-fold lower in Ki: 106 nM for the first, 10.9 nM for the second. The second binds more tightly here.

In the case of CC(CO)NS(=O)(=O)c1ccccc1-c1ccc(-c2cnc(N)c(C#N)n2)c(F)c1 (stereo in doubt) [Example 410, 4′-(5-amino-6-cyanopyrazin-2-yl)-3′-fluoro-N-[(1R)-2-hydroxy-1-methylethypiphenyl-2-sulfonamide], the Ki is reported as 3.7 nM.

Same assay, conditions: human FLAP wild type, a calculated value of 0.000 indicates Ki less than 1 nM

Nc1cnc(-c2ccc(-c3ccccc3S(=O)(=O)N[C@H]3CCCC[C@@H]3CO)cc2F)cn1 (racemic) [Example 121, racemic (trans)-4′-(5-Aminopyrazin-2-yl)-3′-fluoro-N-[2-(hydroxymethyl)cyclohexyl]biphenyl-2-sulfonamide] and CC(NS(=O)(=O)c1ccccc1-c1ccc(-c2cnc3[nH]ccc3n2)c(F)c1)C(F)(F)F (racemic) [Example 376, 3′-Fluoro-4′-(5H-pyrrolo[2,3-b]pyrazin-2-yl)N-N-(2,2,2-trifluoro-1-methylethyl)biphenyl-2-sulfonamide] cannot be ordered by Ki: < 1 nM for the first, < 1 nM for the second.
